Test results: patent US8338597B2, “Pyridones useful as inhibitors of kinases” (Vertex Pharmaceuticals Incorporated, priority 2004, dated 2012)

Columns and labels:
Type in all cases: biochemical
[1] = biological target: T1, Itk (Homo sapiens, UniProt Q08881); assay: ITK inhibition assay (UV), standard coupled enzyme assay; conditions: 100 μM ATP, 100 nM Itk, 25° C.
T1 sequence (Q08881 1-620): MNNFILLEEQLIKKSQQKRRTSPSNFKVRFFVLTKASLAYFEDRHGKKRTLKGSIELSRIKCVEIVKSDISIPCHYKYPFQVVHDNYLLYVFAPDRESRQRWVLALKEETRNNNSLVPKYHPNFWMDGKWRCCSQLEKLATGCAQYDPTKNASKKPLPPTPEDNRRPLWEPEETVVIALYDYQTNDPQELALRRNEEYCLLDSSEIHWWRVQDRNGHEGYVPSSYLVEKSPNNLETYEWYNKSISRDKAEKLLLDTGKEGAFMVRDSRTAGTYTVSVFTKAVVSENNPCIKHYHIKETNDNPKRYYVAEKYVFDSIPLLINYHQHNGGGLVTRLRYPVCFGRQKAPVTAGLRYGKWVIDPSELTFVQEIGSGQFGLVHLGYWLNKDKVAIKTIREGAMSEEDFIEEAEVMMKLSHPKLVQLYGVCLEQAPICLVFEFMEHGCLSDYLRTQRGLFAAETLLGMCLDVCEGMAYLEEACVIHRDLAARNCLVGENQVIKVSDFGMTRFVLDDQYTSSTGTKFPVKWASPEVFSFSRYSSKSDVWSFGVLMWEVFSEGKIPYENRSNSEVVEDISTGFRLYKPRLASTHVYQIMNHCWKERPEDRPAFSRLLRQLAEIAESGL
Protocol: Assays were carried out in a mixture of 20 mM MOPS (pH 7.0), 10 mM MgCl2, 0.1% BSA, 1 mM DTT, 2.5 mM phosphoenolpyruvate, 300 μM NADH, 30 μg/ml pyruvate kinase and 10 μg/ml lactate dehydrogenase. […]
An assay stock buffer solution was prepared containing all of the reagents listed above, with the exception of ATP and the test compound of interest. […] The plate was preincubated for 10 minutes at 25° C. and the reaction initiated by addition of 5 μl of ATP. Initial reaction rates were determined with a Molecular Devices SpectraMax Plus plate reader over a 10 minute time course. IC50 and Ki data were calculated from non-linear regression analysis using the Prism software package (GraphPad Prism version 3.0cx for Macintosh, GraphPad Software, San Diego Calif., USA).

[2] = biological target: T2, Rlk (Homo sapiens, UniProt P42681); assay: RLK inhibition assay, standard coupled enzyme assay; conditions: 100 μM ATP, 40 nM Rlk, 30° C.
T2 sequence (P42681 1-527): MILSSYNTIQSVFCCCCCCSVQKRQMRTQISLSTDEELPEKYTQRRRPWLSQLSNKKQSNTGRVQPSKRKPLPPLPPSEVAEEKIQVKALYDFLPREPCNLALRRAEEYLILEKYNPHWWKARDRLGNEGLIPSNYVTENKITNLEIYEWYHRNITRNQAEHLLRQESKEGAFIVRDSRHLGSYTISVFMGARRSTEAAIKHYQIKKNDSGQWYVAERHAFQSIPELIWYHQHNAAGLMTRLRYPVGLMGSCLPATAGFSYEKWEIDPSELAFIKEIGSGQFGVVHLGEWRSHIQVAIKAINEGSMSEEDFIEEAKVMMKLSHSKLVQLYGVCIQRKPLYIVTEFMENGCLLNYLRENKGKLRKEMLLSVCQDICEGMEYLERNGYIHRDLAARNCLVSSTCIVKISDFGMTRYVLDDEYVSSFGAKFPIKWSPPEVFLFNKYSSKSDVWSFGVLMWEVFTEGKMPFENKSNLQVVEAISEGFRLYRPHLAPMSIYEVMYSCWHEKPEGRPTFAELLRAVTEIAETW
Protocol: Compounds were screened for their ability to inhibit Rlk using a standard coupled enzyme assay (Fox et al., Protein Sci., (1998) 7, 2249). Assays were carried out in a mixture of 20 mM MOPS (pH 7.0), 10 mM MgCl2, 0.1% BSA and 1 mM DTT. Final substrate concentrations in the assay were 100 μM ATP (Sigma Chemicals) and 10 μM peptide (Poly Glu:Tyr 4:1). Assays were carried out at 30° C. and in the presence of 40 nM Rlk. Final concentrations of the components of the coupled enzyme system were 2.5 mM phosphoenolpyruvate, 300 μM NADH, 30 μg/ml pyruvate kinase and 10 μg/ml lactate dehydrogenase.
An assay stock buffer solution was prepared containing all of the reagents listed above, with the exception of ATP and the test compound of interest. 60 μl of the stock solution was placed in a 96 well plate followed by addition of […] of DMSO stock containing serial dilutions of the test compound (typically starting from a final concentration of 7.5 μM). The plate was preincubated for 10 minutes at 30° C. and the reaction initiated by addition of 5 μl of ATP. Initial reaction rates were determined with a Molecular Devices SpectraMax Plus plate reader over a 10 minute time course. IC50 and Ki data were calculated from non-linear regression analysis using the Prism software package (GraphPad Prism version 3.0cx for Macintosh, GraphPad Software, San Diego Calif., USA).

[3] = biological target: T1, Itk; assay: ITK inhibition assay, radioactive-phosphate incorporation; conditions: [γ-33P]ATP, SAM68 peptide, 25° C.
Protocol: Assays were carried out in a mixture of 20 mM MOPS (pH 7.0), 10 mM MgCl2, 0.1% BSA and 1 mM DTT. […] Assays were carried out at 25° C. in the presence of 50 nM Itk. An assay stock buffer solution was prepared containing all of the reagents listed above, with the exception of ATP and the test compound of interest.
(§1) The reaction was stopped after 10 minutes by the addition of […] 0.2M phosphoric acid+0.01% TWEEN 20. A multiscreen phosphocellulose filter 96-well plate (Millipore, Cat no. MAPHN0B50) was pretreated with 100 μL 0.2M phosphoric acid+0.01% TWEEN 20 prior to the addition of […] of the stopped assay mixture. The plate was washed with 4×200 μL 0.2M phosphoric acid+0.01% TWEEN 20.
Ki(app) data were calculated from non-linear regression analysis of the initial rate data using the Prism software package (GraphPad Prism version 3.0cx for Macintosh, GraphPad Software, San Diego Calif., USA).

[4] = biological target: Btk (Homo sapiens, UniProt Q06187); assay: BTK inhibition assay, radioactive-phosphate incorporation; conditions: 50 μM [γ-33P]ATP, 25 nM Btk, 25° C.
Protocol: Compounds were screened for their ability to inhibit Btk using a radioactive-phosphate incorporation assay at Vertex Pharmaceuticals. Assays were carried out in a mixture of 20 mM MOPS (pH 7.0), 10 mM MgCl2, 0.1% BSA and 1 mM DTT. Final substrate concentrations in the assay were 50 μM [γ-33P]ATP (200mCi 33P ATP/mmol ATP, Amersham Pharmacia Biotech, Amersham, UK/Sigma Chemicals) and 2 μM peptide (SAM68 D332-443). Assays were carried out at 25° C. and in the presence of 25 nM Btk. An assay stock buffer solution was prepared containing all of the reagents listed above, with the exception of the peptide and the test compound of interest. 75 μL of the stock solution was placed in a 96 well plate followed by addition of 2 μL of DMSO stock containing serial dilutions of the test compound (typically starting from a final concentration of 15 μM) in duplicate (final DMSO concentration 2%). The plate was preincubated for 15 minutes at 25° C. and the reaction initiated by addition of 25 μL peptide (final concentration 2 μM). Background counts were determined by the addition of […] 0.2M phosphoric acid+0.01% TWEEN to control wells containing assay stock buffer and DMSO prior to initiation with peptide.
as §1, with “phosphoric acid+0.01% TWEEN. A multiscreen” for “phosphoric acid+0.01% TWEEN 20. A multiscreen”, “TWEEN 20. After drying, 30 μL Optiphase ‘SuperMix’ liquid scintillation cocktail (Perkin Elmer) was added to the well prior to scintillation counting (1450 Microbeta Liquid Scintillation Counter, Wallac).” for “TWEEN 20.”
After removing mean background values for all of the data points, Ki(app) data were calculated from non-linear regression analysis using the Prism software package (GraphPad Prism version 3.0cx for Macintosh, GraphPad Software, San Diego Calif., USA).

Chain of Btk (Q06187 whole entry, species assumed): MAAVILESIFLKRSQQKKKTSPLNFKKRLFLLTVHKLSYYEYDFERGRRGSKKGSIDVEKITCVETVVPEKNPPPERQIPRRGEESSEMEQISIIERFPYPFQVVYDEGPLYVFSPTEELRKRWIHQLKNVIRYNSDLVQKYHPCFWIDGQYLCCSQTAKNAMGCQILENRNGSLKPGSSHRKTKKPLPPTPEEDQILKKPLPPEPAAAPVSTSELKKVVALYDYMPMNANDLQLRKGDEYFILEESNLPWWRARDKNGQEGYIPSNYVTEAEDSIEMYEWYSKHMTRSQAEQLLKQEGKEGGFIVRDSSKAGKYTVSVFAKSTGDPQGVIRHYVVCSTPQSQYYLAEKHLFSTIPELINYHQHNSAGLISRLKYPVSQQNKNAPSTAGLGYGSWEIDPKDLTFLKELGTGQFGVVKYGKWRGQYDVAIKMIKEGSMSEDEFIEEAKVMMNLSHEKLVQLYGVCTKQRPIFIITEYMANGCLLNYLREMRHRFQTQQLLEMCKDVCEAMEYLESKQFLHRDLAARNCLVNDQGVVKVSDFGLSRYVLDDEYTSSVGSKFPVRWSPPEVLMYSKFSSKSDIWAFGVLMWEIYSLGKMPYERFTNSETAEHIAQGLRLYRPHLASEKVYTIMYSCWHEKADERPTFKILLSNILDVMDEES

SMILES	Ki [1] [nM]	Ki [2] [nM]	Ki [3] [nM]	Ki [4] [nM]
CN1CCN(c2ccc(C(=O)Nc3cc(-c4ccncc4)c[nH]c3=O)cc2)CC1 [Compound I-70]	< 100	–	–	–
CN(C)CCCNc1ccc(C(=O)Nc2cc(-c3ccncc3)c[nH]c2=O)cc1 [Compound I-79]	< 100	–	–	–
O=C(Nc1cc(-c2ccncc2)c[nH]c1=O)c1ccc(CCl)cc1 [Compound I-5]	100 to 1000	> 1000	100 to 1000	–
CSc1nccc(-c2c[nH]c(=O)c(NC(=O)c3ccc(C(C)(C)C)cc3)c2)n1 [II-4, 4-tert-Butyl-N-[5-(2-methylsulfanyl-pyrimidin-4-yl)-2-oxo-1,2-dihydro-pyridin-3-yl]-benzamide]	100 to 1000	–	100 to 1000	–
CNc1cc(-c2c[nH]c(=O)c(NC(=O)c3ccc(C(C)(C)C)cc3)c2)nc(SC)n1 [II-41]	100 to 1000	> 1000	100 to 1000	–
NCCCNc1ccc(C(=O)Nc2cc(-c3ccncc3)c[nH]c2=O)cc1 [Compound I-80]	< 100	–	–	–
O=C(Nc1cc(-c2ccncc2)c[nH]c1=O)c1ccc(N2CCCC2)cc1 [Compound I-69]	100 to 1000	–	100 to 1000	–
CNc1ccc(C)c(-c2c[nH]c(=O)c(NC(=O)c3ccc(C(C)(C)C)cc3)c2)c1 [II-43]	–	–	100 to 1000	> 500
O=C(Nc1cc(-c2ccncc2)c[nH]c1=O)c1ccc(N2CCCCCC2)cc1 [Compound I-76]	< 100	–	–	–
CN(C)CCNc1nccc(-c2c[nH]c(=O)c(NC(=O)c3ccc(N4CCCCC4)cc3)c2)n1 [II-58]	–	–	< 100	< 500
O=C(Nc1cc(-c2ccncc2)c[nH]c1=O)c1ccc(CN2CCNCC2)cc1 [Compound I-83]	100 to 1000	–	100 to 1000	–
CNc1nccc(-c2c[nH]c(=O)c(NC(=O)c3ccc(N4CCN(C(C)=O)CC4)cc3)c2)n1 [II-81]	–	< 1000	< 100	–
CNCCNc1cccc(-c2c[nH]c(=O)c(NC(=O)c3ccc(N4CCCCC4)cc3)c2)c1 [II-75]	–	> 1000	100 to 1000	–
CC(C)(C)c1ccc(C(=O)Nc2cc(-c3ccnc(N[C@@H]4CCNC4)n3)c[nH]c2=O)cc1 [II-31]	–	< 1000	< 100	–
CNc1cccc(-c2c[nH]c(=O)c(NC(=O)c3ccc(C(C)(C)C)cc3)c2)n1 [II-7]	100 to 1000	> 1000	100 to 1000	–
Cn1cc(-c2c[nH]c(=O)c(NC(=O)c3ccc(C(C)(C)C)cc3)c2)cn1 [II-15]	–	> 1000	100 to 1000	–
CNc1nccc(-c2c[nH]c(=O)c(NC(=O)c3ccc(C(C)(C)C)cc3)c2)n1 [II-14]	–	< 1000	< 100	–
O=C1C=C(c2c[nH]c(=O)c(NC(=O)c3ccc(N4CCCCC4)cc3)c2)CC1 [II-87]	–	> 1000	100 to 1000	–
O=C(Nc1cc(-c2ccncc2)c[nH]c1=O)c1ccc(N2CCCNCC2)cc1 [Compound I-78]	< 100	–	–	–
O=C1C=C(c2c[nH]c(=O)c(NC(=O)c3ccc(N4CCCCC4)cc3)c2)CCC1 [II-85]	–	> 1000	100 to 1000	–
CNc1nccc(-c2c[nH]c(=O)c(NC(=O)c3ccc(N4CCN(CCCOC)CC4)cc3)c2)n1 [II-79]	–	< 1000	< 100	–
CNc1cncc(-c2c[nH]c(=O)c(NC(=O)c3ccc(NC4CCNCC4)cc3)c2)n1 [II-163]	–	> 1000	< 100	–
CC(C)(C)c1ccc(C(=O)Nc2cc(-c3ccncc3)c[nH]c2=O)cc1 [Compound I-11, 4-tert-Butyl-N-(6-oxo-1,6-dihydro-[3,4]bipyridinyl-5-yl)-benzamide]	100 to 1000	> 1000	100 to 1000	–
CC(C)(C)c1ccc(C(=O)Nc2cc(-c3ccnc(NC4CCNCC4)n3)c[nH]c2=O)cc1 [II-28]	–	< 1000	< 100	–
CNc1cncc(-c2c[nH]c(=O)c(NC(=O)c3ccc(NCCCn4ccnc4)cc3)c2)n1 [II-168]	–	> 1000	< 100	–
CNc1cncc(-c2c[nH]c(=O)c(NC(=O)c3ccc(N(C)CCN(C)C)cc3)c2)n1 [II-164]	–	> 1000	< 100	–
CNc1cc(C#N)cc(-c2c[nH]c(=O)c(NC(=O)c3ccc(N4CCC[C@H]4CN4CCCC4)cc3)c2)c1 [II-179]	–	> 1000	< 100	–
O=C(Nc1cc(-c2ccncc2)c[nH]c1=O)c1ccc(CN2CCOCC2)cc1 [Compound I-82]	100 to 1000	–	100 to 1000	–
CNCCN(C)Cc1ccc(C(=O)Nc2cc(-c3ccncc3)c[nH]c2=O)cc1 [Compound I-84]	100 to 1000	–	100 to 1000	–
